Results: patent US12691124B2, “Methods of controlling and improving brain health” (ICAHN SCHOOL OF MEDICINE AT MOUNT SINAI, priority 2019, dated 2026)

Key:
microglia in vivo = experiment: TRAP of microglia from striatum and cerebellum after chronic IBET858; set-up: species or system mouse; settings: 30 mg/kg i.p. once daily, two weeks
Protocol: Cx3Cr1^CreErt2/+; Efl10a mice were orally gavaged 5 times with tamoxifen to induce the expression of gfp-labelled ribosome. Mice were intraperitoneally injected with IBET858 (30 mg/kg) or vehicle control once daily for two weeks. Four hours after either an acute (1 injection) or chronic (2 weeks) injection, mice were decapitated and used for TRAP.
To better understand how IBET858 affects microglia in their homeostatic state, translating ribosome affinity purification (TRAP) after chronic IBET858 administration was used. TRAP is ideal because it prevents the induction of immediate early and pro-inflammatory genes caused by other isolation protocols which can occlude homeostatic transcriptional profiles. Ayata et al., “Epigenetic Regulation of Brain Region-Specific Microglia Clearance Activity,” Nature Neuroscience 21:1049-1060 (2018), which is hereby incorporated by reference in its entirety. As observed in vitro, microglial lineage is maintained after chronic BET inhibition IBET858 as indicated by expression of Hexb, Fcrls, and Fcer1g in either the striatum or cerebellum (FIG. 4B). […] This is especially important because loss of these region-specific gene expression signatures is highly detrimental to brain function. Ayata et al., “Epigenetic Regulation of Brain Region-Specific Microglia Clearance Activity,” Nature Neuroscience 21:1049-1060 (2018), which is hereby incorporated by reference in its entirety. […] Therefore it is likely that BET inhibition can prevent or modulate pathological microglial activation in vivo as occurs during neurodegeneration.

primary cortical neurons = experiment: Neuronal longevity in primary cortical neuron culture (LDH, propidium iodide, cleaved caspase 3); type: cell-based, mouse
Text: Primary Cortical Neuron Culture. Embryonic day 18 (E18) timed-pregnant female mice were anesthetized with CO2 and sacrificed by cervical dislocation. In a dissection hood, 24-26 embryos per experiment were collected through an incision of the mother's abdomen, taken out of the amniotic sacs and decapitated in ice cold Hank's Balanced Salt Solution (HBSS). Using fine scissors and forceps, brains were rapidly dissected and the cortex cleared from meninges and isolated under a dissection microscope. Cortices were collected in ice cold HBSS and kept on ice until all embryos had been dissected. In a tissue culture hood, HBSS was removed and the cortex tissue digested by 0.25% Trypsin-EDTA for 12 minutes at 37° C., followed by DNase1 treatment for 10 minutes at 37° C. The tissue was dissociated by serial trituration with a 25 ml serological pipette, followed by trituration with 10 ml and 5 ml serological pipettes. Cell suspension was washed once with DMEM medium, supplemented with 10% FBS and 1% penicillin/streptomycin and passed through a […] cell strainer before counted on a hemocytometer. Single cells were seeded on poly-D-lysine (0.1 mg ml-1) coated wells at a density of 1×10^6 cells per well on a 12-well plate. Cells were grown in Neurobasal medium, complemented with B27 supplement, N2 supplement, and 0.5 mM L-glutamine and maintained at 37° C. in 5% CO2 for 1 week. Cultures were treated with DMSO (0.2%), I-BET858 (1 μM, 0.2% DMSO), BDNF (50 ng/ml), or BDNF+I-BET858 for 2 and 12 h on day 7 in vitro. Cultures were washed with phosphate-buffered saline (PBS) on ice and processed for RNA isolation using TRIzol/Chloroform extraction.
(§1) LDH Assay. LDH activity was measured using the Pierce LDH Cytotoxicity Assay Kit. Culture media was incubated with an equal volume of LDH master mix and incubated for 30 minutes at room temperature in the dark. After, the same volume of stop reagent was added and the absorbance was measured at 490 and 680 nm. Maximum LDH measurements were obtained by adding lysis buffer to release the total amount of LDH in the sample. LDH release is calculated as a percent of the maximum.
(§2) Propidium Iodide Assay. Propidium iodide (1 mg/ml, Life Technologies #P3566) was added to each culture well at a final concentration of 0.5 μg/ml. Cultures were incubated for 30 minutes at 37 degrees then washed with PBS. Cells were then fixed with 4% paraformaldehyde in PBS for 15 minutes at room temperature. After fixation, cells were washed with PBS and then mounted using mounting media containing DAPI.
In order to understand the effect of chronic BET inhibition on neuronal survival, primary cortical mouse neurons were cultured in the presence or absence of the brain permeable BET inhibitor IBET858 (1 μM). To quantify cell death over time, the levels of lactate dehydrogenase (LDH) were measured in culture media which is presumably released during cell death as the membranes become permeable. […] The observed decrease in LDH activity after BET inhibition occurs in a dose-dependent manner. LDH activity, which is an indirect measure of cell death, may be affected by other factors such as changes in metabolism or expression of the LDH genes. Therefore in order to confirm these findings, propidium iodide (PI) staining was used to directly quantify the number of dead neurons over time. This membrane impermeable dye increases in fluorescence 20-30 fold after intercalating DNA265. […] To give context to the magnitude of this effect on survival, this experiment was repeated with a direct comparison to the mTOR inhibitor, rapamycin (20 nM).

[1] = test system: primary cortical neurons exposed to glutamate; experiment: Glutamate excitotoxicity in primary cortical neurons; type: cell-based, mouse
Protocol: as §1, §2
In addition to increasing longevity, rapamycin treatment protects neurons from toxic stimuli such as excessive glutamate. […] Because IBET858 increased neuronal lifespan to the same extent as rapamycin, it was hypothesized that BET inhibition could also induce a protective state in neurons. To test if IBET858 can prevent neuronal death, the neurons were exposed to excitotoxic levels of glutamate, a common in vitro assay that mirrors neuronal death observed in vivo after stroke or neurodegeneration. High levels of glutamate cause a strong influx of calcium into the neuron ultimately leading to necrosis followed by apoptosis.
Neurons were treated with IBET858 for increasing durations (2 h, 24 h, 72 h or 1 week) before stimulation with an excitotoxic amount of glutamate (1 mM) on day 14 when mature synapses fully express glutamate receptors. Chronic but not acute BET inhibition increases neuronal survival in response to glutamate toxicity, as measured by the LDH assay. […] Therefore a 1 week treatment time point was used for all subsequent experiments.

C57bl/6 mice = experiment: Kainic acid injection in the hippocampus, cCASP3 immunostaining; type: in vivo, mouse; settings: 30 mg/kg i.p. daily 1 week, then kainic acid, 24 h
Protocol: C57bl/6 mice were daily treated with IBET858 (30 mg/kg, i.p.) for 1 week, followed by stereotaxic injection of kainic acid in the hippocampus. Mice were perfused 24 hours after kainic acid injection and brains were immunostained for cCASP3 to identify dying cells.

CC(=O)N1c2ccc(-c3ccc(CN4CCCCC4)cc3)cc2[C@H](Nc2ccccc2)CC1C (stereo in doubt) [IBET858]
microglial lineage (Hexb, Fcrls, Fcer1g expression) in striatum or cerebellum (microglia in vivo): maintained | regional microglial transcriptomic heterogeneity (microglia in vivo): also unaffected | striatal microglial inflammatory genes (Ccr5, Cd180, Gpr84, Wdfy1) (microglia in vivo): suppressed | dose dependence of decrease in LDH activity (primary cortical neurons): dose-dependent | neuron survival over time, propidium iodide assay (primary cortical neurons; 1 μM): survive significantly longer than control | number of cells positive for cleaved caspase 3 (primary cortical neurons; 1 μM): decreased | LDH activity in culture media over time (primary cortical neurons; 1 μM, from day 16 in vitro): significantly less LDH activity | neuronal lifespan, IBET858 compared with rapamycin (primary cortical neurons; IBET858 1 μM, rapamycin 20 nM): to the same extent as rapamycin if not more | protection from excitotoxicity, IBET858 compared with rapamycin ([1]; 1 week IBET858 1 μM, Rapamycin 20 nM, 1 mM glutamate): as well as rapamycin | cell death after glutamate exposure, propidium iodide ([1]; 1 week pretreatment, 1 mM glutamate): fewer neurons treated with IBET858 die | excitotoxicity-induced neuronal death, LDH assay ([1]; 1 week pretreatment, 1 mM glutamate, day 14): almost completely prevents | excitotoxicity-induced neuronal death, LDH assay ([1]; 72 h pretreatment, 1 mM glutamate): mild protective effect | neuroprotective phenotype after washout, glutamate exposure ([1]; temporary pretreatment, wash out, 4 days on DMSO, 1 mM glutamate day 14): neuroprotective phenotype that is maintained even in the absence of IBET | glutamate-induced toxicity in vivo (cCASP3 dying cells) (C57bl/6 mice): protects neurons from glutamate-induced toxicity in vivo
